From article PMC12040169 (PLOS Biology, 2025)

Assay: in vitro
Settings: human, hela cells, % viability

Structure (SMILES)	viability at 28.5 h, 10 µM
COc1ccnc(N2CCCN(Cc3ncc(Cl)n3C)CC2)n1 [CBK305152]	111%
CN(C(=O)CN1CCCCC1Cn1cccn1)C1(C#N)CCCCC1 (centres unmarked) [CBK305412]	90.1%
Nc1ncc(-c2cc(C(F)(F)F)cc(C(F)(F)F)c2)nc1N1CCN(CCO)CC1 [CBK063426]	103%
O=C(CSc1nc(-c2ccccc2)cc(-c2ccccc2)n1)Nc1cccc([N+](=O)[O-])c1 [CBK263896]	97.9%
CCCc1nnc2sc(C3CCCN(C(C)C)C3)nn12 (centres unmarked) [CBK306781]	85.3%
N#CC(C(=O)CN1CCCC1)c1ccccc1 (centres unmarked) [CBK269333]	98.1%
CC(=O)N[C@H]1CC[C@]2(C)CCC([C@H](C)C(=O)NC3CC3)[C@H](O)[C@H]2[C@@H]1C (some centres unmarked) [CBK289437]	93.9%
C[C@@H](Nc1cncc(-c2ccncc2)n1)c1ccccc1 [CBK066055]	90%
CCC1=C(c2ccc(Cl)cc2)CCC(C(=O)NCCCN(C)C)C1C (centres unmarked) [CBK012578]	74.1%
O=C(c1ccc(F)cc1)C1CCN(C(=O)c2cccnc2NCc2ccc3c(c2)OCO3)CC1 [CBK160114]	113%
COc1cccc(N2CCC(=O)N2)c1 [CBK087441]	87%
O=C(Cc1ccc(Cl)cc1Cl)Nc1ccc(-c2nnc3n2CCCCC3)cc1 [CBK296949]	94.8%
O=C1c2ccccc2NC(c2cnc3ccccc3n2)N1O (centres unmarked) [CBK288357]	84.7%
FC(F)(F)c1nc2ccccc2nc1OCCc1c[nH]c2ccccc12 [CBK115843]	93.2%
CC(C)c1ccccc1NC(=O)NCCc1cccs1 [CBK043938]	97.9%
CCOc1ccc(NC(=O)NC(CC)c2cnn(C)c2)cc1Cl (centres unmarked) [CBK307262]	107%
CCc1nc2ccc(C(=O)NC3CCN(Cc4ccccc4)CC3)cn2c1N(C)CC [CBK145488]	88.3%
O=C(NC1CCOCC1)c1n[nH]c2c1CCC2 [CBK174626]	113%
CC(=O)N1CCCC(c2[nH]c3cccnc3c2CN(C)C)C1 (centres unmarked) [CBK283469]	89.1%
Cc1nc(N2CCCCC2)ncc1C(=O)NCc1nonc1C [CBK307243]	87.7%
O=C(N[C@H]1CCN2C(=O)N(c3cccc(C(F)(F)F)c3)C(=O)[C@@H]2C1)c1ccncc1 [CBK289552]	98.7%
NS(=O)(=O)c1ccc(CCNC2CC(=O)N(Cc3cccs3)C2=O)cc1 (centres unmarked) [CBK266579]	91.1%

Structure (SMILES)	viability at 28.5 h, 10 µM
O=C(NCCOc1ccc(F)cc1)c1cccs1 [CBK057930]	116%
Cc1ccc(Cc2c(C)[nH]c3[nH]n(-c4ccccc4)c(=O)c3c2=O)cc1 [CBK270273]	83.7%
COc1ccc(C2(O)CCN(CC(O)c3ccc(C(C)(C)C)cc3)CC2)cc1 (centres unmarked) [CBK286333]	90.6%
Nc1nc(Cl)cc(Sc2ccc3ccccc3c2)n1 [CBK021630]	97.4%
Cc1ccc(S(=O)(=O)N[C@H]2CO[C@H]3[C@@H]2OC[C@H]3O)cc1 [CBK289477]	98.4%
Cc1cc(S(=O)(=O)N2CCN(c3ccc(Cl)cc3)CC2)c(C)cc1Cl [CBK044965]	114%
COc1cccc(CNc2ccc(N3CCCCC3)cc2)c1OCc1cccs1 [CBK074531]	96.5%
CC(C)Nc1cc(OCc2ccc(-c3ccccc3)cc2)ncn1 [CBK115658]	103%
COc1ccc(S(=O)(=O)N(C)c2ccc(N3CCNCC3)c3ccccc23)cc1 [CBK022404C]	94.9%
CN(C)C(CNc1nccnc1-c1ccc(CO)cc1)c1cccnc1 (centres unmarked) [CBK038038]	87.6%
OC[C@H]1O[C@@H](n2cnc3c(Cl)ncnc32)C[C@H]1O [CBK201167]	99.6%
COc1ccc(NC(=O)c2cnc(-c3cccc(C(F)(F)F)c3)c(-c3ccncc3)c2)cc1 [CBK037593]	87.3%
c1ccc(Oc2nc3ccccc3n3cnnc23)cc1 [CBK287945]	91.9%
Cc1cc(NC2CC3CCCC(C2)N3C)nc(N)n1 (centres unmarked) [CBK170333]	88.4%
CCC(CO)Nc1nccnc1-c1cccs1 (centres unmarked) [CBK036800]	98.3%
COCCN(C(=O)c1ccc2ccccc2c1)C1CCS(=O)(=O)C1 (centres unmarked) [CBK305758]	102%
CC1CCN(C(=O)CN2C(=O)N3CCN=C3c3ccccc32)CC1 [CBK283946]	93.6%
O=C(CCn1c(-c2ccncc2)cc2cccnc21)NC1CCCCC1 [CBK282621]	87.8%
O=C(O)c1ccc(NC(=O)c2cn(-c3ccccc3)nc2-c2cccnc2)cc1 [CBK296122]	102%
O=[N+]([O-])c1ccc(N/N=C/c2cnn(-c3ccccc3)c2)cc1 [CBK018746]	94%
CC1(C)Cc2nc(N3CCOCC3)ncc2C(NC(=O)c2cn[nH]c2)C1 (centres unmarked) [CBK307409]	106%
Cc1cc(-c2ccc(=O)n(C3CCN(C(=O)C4CC4)CC3)n2)c(C)o1 [CBK284462]	87.2%

Structure (SMILES)	viability at 28.5 h, 10 µM
CC1(C)CC(=O)C(C(=S)Nc2ccc(F)cc2)=C(NCc2ccc3c(c2)OCO3)C1 [CBK264779]	97.5%
CCN(CCO)c1ccc(Nc2cc(-c3ccc(C#N)cc3)ncn2)cc1 [CBK037764]	87.9%
O=C(O)c1cccc(-c2cccc(N3CCN(c4ccccn4)CC3)n2)c1 [CBK036888]	92.7%
COc1ccc(Cl)cc1C(=O)O/N=C(\N)Cc1cccc2ccccc12 [CBK266275]	98.3%
CC(C)(C)c1ccc(S(=O)(=O)N/N=C\c2ccc(Cl)cc2Cl)cc1 [CBK264759]	84.6%
CC(C)n1c(=O)n(CCN2CCCCC2)c2cccnc21 [CBK283932]	95.4%
CC[C@H]1CCCCN1C(=O)c1sc2nc(C(C)=O)ccc2c1Cl [CBK091046]	101%
Cc1ccc2nc(C(=O)NCCSc3nccn3C)cn2c1 [CBK281397]	93.4%
Cc1nc(C(F)(F)F)ccc1C(=O)NCCn1ccnc1C [CBK281982]	88.9%
N#C/C(=C\c1ccc(OCC(=O)c2ccccc2)cc1)c1nc(-c2cccs2)cs1 [CBK266765]	95.3%
CCS(=O)(=O)N1CCc2cc(-c3csc(-c4cnn(C)c4)n3)ccc21 [CBK305560]	93.7%
Cc1cc2c(cc1S(=O)(=O)NCCOc1cccc(C(=O)O)c1)OCC(=O)N2 [CBK299770]	88.3%
CC1(C)CC(=O)Nc2ccccc2S1 [CBK025483]	98.2%
COc1nc(N)nc(C/C(=N\NC(=O)c2cccnc2)C2CC2)n1 [CBK019872]	90.9%
COc1ccc(-c2nnc3c4ccccc4c(C)nn23)cc1S(=O)(=O)N1CCCCC1 [CBK266640]	110%
O=C(O)c1cccc(-n2ncc(-c3ccsc3)n2)c1 [CBK112859]	100%
COc1ccc(C2=NN(C(=O)CCCC(=O)O)C(c3ccc4nccnc4c3)C2)cc1OC (centres unmarked) [CBK297785]	84.2%
Cc1cc(Oc2ccc(Cl)cc2Cl)nc(OCC#N)n1 [CBK019232]	96.9%
Cc1onc(-c2c(Cl)cccc2Cl)c1N(C)C(=O)N1CCCCC1 [CBK086555]	109%
CN(C)S(=O)(=O)NC1CC(C)(C)Cc2c1cnn2-c1ccccc1 (centres unmarked) [CBK307533]	94.5%
NS(=O)(=O)c1ccc(CNC(=O)c2cc(-c3cccnc3)nc3ccc(Cl)cc23)cc1 [CBK267727]	83.8%
O=C1COc2ccccc2CCCCC2(CCCNC2)CN1 (centres unmarked) [CBK292166]	90.5%

Structure (SMILES)	viability at 28.5 h, 10 µM
CC(=O)N1CCC(O)(C2(C)OC(NC3C4CC5CC(C4)CC3C5)=NC2=O)CC1 (centres unmarked) [CBK138181]	91.8%
CS(=O)(=O)c1cccc(C(=O)n2c(=O)n(CC3CCCCC3)c3ccccc32)c1 [CBK106520]	103%
CCOC(=O)c1c(NC(=O)CN2CC(C)OC(C)C2)sc2c1CCCC2 (centres unmarked) [CBK265216]	103%
O=C(c1cccs1)N1Cc2ccccc2OC2(CCOCC2)C1 [CBK284942]	103%
Cc1cccc(CN(CC(=O)Nc2ccc3c(c2)OCCO3)S(=O)(=O)c2ccc(Cl)cc2)c1 [CBK264910]	91.9%
COCCCOc1nc2ccccc2nc1NC(C)C [CBK115737]	99.3%
CC1(C)CC(=O)C(=CNCCC(c2ccccc2)c2ccccc2)C(=O)C1 [CBK262057]	114%
CC(C)(C)c1nnc(NS(=O)(=O)c2ccc([N+](=O)[O-])cc2)s1 [CBK045500]	93.3%
NS(=O)(=O)c1cc(C(=O)OCC(=O)c2ccccc2)c(Cl)cc1Cl [CBK264542]	90.8%
O=C(Cc1ccc(F)cc1)N1CCC(n2cnc3cccnc32)CC1 [CBK283574]	91.1%
CN1CCN(c2ccc(NC(=O)c3ccc(OCc4ccccc4)cc3)cc2Cl)CC1 [CBK269080]	96.2%
CCc1ccc2occ(CC(=O)Nc3ccc(C(=O)OC)cc3)c2c1 [CBK268318]	105%
CN1CCN(C(S)=Nc2ccc(S(N)(=O)=O)cc2)CC1 [CBK265223]	92.5%
Cc1ccc(-c2nnc(CNC(=O)Cc3ccccc3F)o2)s1 [CBK284644]	78.4%
OCCN(CCO)c1cncc(-c2ccc(Cl)cc2)n1 [CBK065748]	95.2%
O=C(CSc1nnc(-c2cccnc2)n1-c1ccccc1)Nc1cc(C(F)(F)F)ccc1Cl [CBK267540]	90.8%
COC(=O)[C@@H]1CN(C(=O)c2ccc(OC)cc2)CCN1C(C)=O [CBK289578]	97.5%
O=C1CCC(=O)N1CCOc1nccnc1N1CCN(CCc2ccc3ccccc3c2)CC1 [CBK084307]	96.4%
Clc1nc(NCCN2CCOCC2)nc(N2CCCCCC2)n1 [CBK027412]	98.9%
O=C(Nc1ccon1)c1nn(-c2ncccn2)c2ccccc12 [CBK048513]	95.3%
O=C(Cn1c(-c2cncs2)nc2ccccc21)NCc1ccc2c(c1)OCO2 [CBK264699]	95.5%
Nc1n[nH]c(SCC(=O)N2CCN(C(c3ccccc3)c3ccccc3)CC2)n1 [CBK267893]	86.5%

Same assay, conditions: human, hela cells, % viability, bulk resorufin, single well

Structure (SMILES)	viability at 28.5 h, 10 µM
COC(=O)c1nn(Cc2ccc(OC)cc2)c2ccccc12 [CBK093526]	31.4%
